Experimental data reported in ChEMBL document CHEMBL1255222, “Exploring the neuroleptic substituent in octoclothepin: potential ligands for positron emission tomography with subnanomolar affinity for α(1)-adrenoceptors” (J Med Chem, 2010).

How the values were obtained:
[1] = Apparent permeability across human Caco-2 cells; format: ADME, cell-based
physchem = settings: octanol/water

Row | Papp [1] | logD (physchem) | SMILES
1 | 33 ×10⁻⁶ cm/s | 2.65 | CC(=O)NCc1ccc2c(c1)C(N1CCN(C)CC1)Cc1ccccc1S2 (racemic)
2 | 66 ×10⁻⁶ cm/s |  | CCN1CCC[C@H]1CNC(=O)c1c(O)c(Cl)cc(Cl)c1OC [RACLOPRIDE]

Second part, the compound before the results:

Row | SMILES | Papp [1] | logD (physchem)
3 | CN1CCC(c2cn(-c3ccc(F)cc3)c3ccc(-c4cncnc4)cc23)CC1 | 13 ×10⁻⁶ cm/s | 1.9
4 | Cn1nnc(-c2ccc3c(c2)c(C2CCN(CCN4CCNC4=O)CC2)cn3-c2ccc(F)cc2)n1 | 12 ×10⁻⁶ cm/s | 3.06
5 | CC(C)C(=O)NCc1ccc2c(c1)C(N1CCN(C)CC1)Cc1ccccc1S2 (racemic) | 57 ×10⁻⁶ cm/s | 3.1
